Test results as given in patent US8143304B2, “(3-amino-1,2,3,4-tetrahydro-9 H-carbazol-9-yl)-acetic acid derivatives” (Actelion Pharmaceutical Ltd., priority 2006, dated 2012).

target: T1, hCRTH2 receptor (Homo sapiens, UniProt Q9Y5Y4); assay: hCRTH2 receptor membranes radioligand binding assay ({3H}-PGD2); settings: {3H}-PGD2 2.5 nM, membranes of HEK 293 cells expressing recombinant hCRTH2 receptor; read-out: hCRTH2 Bdg IC50
T1 construct: expressed in transfected cells; host or cells: clonal HEK 293 cell line (membrane preparation)
T1 sequence (Q9Y5Y4 1-395): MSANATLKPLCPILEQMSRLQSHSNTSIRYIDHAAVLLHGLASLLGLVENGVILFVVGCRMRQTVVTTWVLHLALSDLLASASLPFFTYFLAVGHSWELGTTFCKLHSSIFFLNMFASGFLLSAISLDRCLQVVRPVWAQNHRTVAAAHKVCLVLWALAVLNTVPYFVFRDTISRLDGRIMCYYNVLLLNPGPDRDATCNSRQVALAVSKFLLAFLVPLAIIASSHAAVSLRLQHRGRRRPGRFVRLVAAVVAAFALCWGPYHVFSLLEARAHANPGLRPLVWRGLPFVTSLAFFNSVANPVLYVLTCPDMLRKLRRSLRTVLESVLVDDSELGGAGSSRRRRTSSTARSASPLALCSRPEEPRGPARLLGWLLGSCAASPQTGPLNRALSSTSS
Protocol: The biological effect of such compounds may be tested in a variety of in vitro, ex vivo and in vivo assays.
Biological Assays: Preparation of hCRTH2 Receptor Membranes and Radioligand Binding Assay:
Cells are detached from culture plates in 5 ml buffer A per plate (5 mM Tris, pH 7.4, 1 mM MgCl2, 0.1 mM PMSF, 0.1 mM phenanthroline) using a police rubber and transferred into centrifugation tubes and frozen at −80° C. After thawing, the cells are centrifuged at 500 g for 5 min and then resuspended in buffer A. Cells are then fragmented by homogenization with a Polytron cell homogenizer for 30 s. The membrane fragments are collected by centrifugation at 3000 g for 40 min and resuspended in buffer B (50 mM Tris, pH 7.4, 25 mM MgCl2, 250 mM saccharose) and aliquots are stored at […].
Binding assay is performed in a total volume of 250 μl. […] For unspecific binding, PGD2 is added to the reaction mixture at 1 μM final concentration. This binding assay mix is incubated at rt for 90 min and then filtered through a GF/C filter plate. The filter is washed three times with ice cold binding buffer C. Then, Microscint-40 (Packard, 40 μl/well) is added and the receptor bound radioactivity is quantified by scintillation counting in a “TopCount” benchtop microplate scintillation counter (Packard).

| Compound | IC50 |
| --- | --- |
| O=C(O)Cn1c2c(c3ccccc31)C[C@H](NC(=O)Cc1cccs1)CC2 [(3R)-[3-(2-Thiophen-2-yl-acetylamino)-1,2,3,4-tetrahydro-9H-carbazol-9-yl]-acetic acid] | 297 nM |
| O=C(O)Cn1c2c(c3ccccc31)C[C@H](NC(=O)c1ccccc1)CC2 [(3R)-(3-Benzoylamino-1,2,3,4-tetrahydro-9H-carbazol-9-yl)-acetic acid] | 488 nM |
| O=C(O)Cn1c2c(c3ccccc31)C[C@H](NC(=O)CCC1CCCC1)CC2 [(3R)-[3-(3-Cyclopentyl-propionylamino)-1,2,3,4-tetrahydro-9H-carbazol-9-yl]-acetic acid] | 400 nM |
| O=C(O)Cn1c2c(c3cc(F)ccc31)C[C@@H](NC(=O)CC(c1ccccc1)c1ccccc1)CC2 [(3S)-[3-(3,3-Diphenyl-propionylamino)-6-fluoro-1,2,3,4-tetrahydro-9H-carbazol-9-yl]-acetic acid] | 2 nM |
| O=C(O)Cn1c2c(c3cc(F)ccc31)C[C@@H](N(CC1CCCCC1)C(=O)NCc1ccccc1)CC2 [(3S)-[3-(3-Benzyl-1-cyclohexylmethyl-ureido)-6-fluoro-1,2,3,4-tetrahydro-9H-carbazol-9-yl]-acetic acid] | 6 nM |
| O=C(O)Cn1c2c(c3cc(C(F)(F)F)ccc31)CC(NC(=O)OCc1ccccc1)CC2 (racemic) | 26 nM |
| CC(C)(C)OC(=O)Nc1cccc(CCC(=O)N[C@H]2CCc3c(c4cc(F)ccc4n3CC(=O)O)C2)c1 [(3S)-{3-[3-(3-tert-Butoxycarbonylamino-phenyl)-propionylamino]-6-fluoro-1,2,3,4-tetrahydro-9H-carbazol-9-yl}-acetic acid] | 93 nM |
| O=C(O)Cn1c2c(c3ccccc31)C[C@@H](NC(=O)OCCOCc1ccccc1)CC2 [(3S)-[3-(2-Benzyloxy-ethoxycarbonylamino)-1,2,3,4-tetrahydro-9H-carbazol-9-yl]-acetic acid] | 117 nM |
| CC(C)COC(=O)N[C@H]1CCc2c(c3ccccc3n2CC(=O)O)C1 [(3S)-(3-Isobutoxycarbonylamino-1,2,3,4-tetrahydro-9H-carbazol-9-yl)-acetic acid] | 84 nM |
| C[C@@H](Cc1ccccc1)C(=O)N(CCOc1ccccc1)[C@H]1CCc2c(c3cc(F)ccc3n2CC(=O)O)C1 [(3S)-{6-Fluoro-3-[((S)-2-methyl-3-phenyl-propionyl)-(2-phenoxy-ethyl)-amino]-1,2,3,4-tetrahydro-9H-carbazol-9-yl}-acetic acid] | 21 nM |
| CCCCNC(=O)N[C@H]1CCc2c(c3ccccc3n2CC(=O)O)C1 [(3S)-[3-(3-Butyl-ureido)-1,2,3,4-tetrahydro-9H-carbazol-9-yl]-acetic acid] | 896 nM |
| O=C(O)Cn1c2c(c3ccccc31)C[C@H](NC(=O)Nc1cccc3ccccc13)CC2 [(3R)-[3-(3-Naphthalen-1-yl-ureido)-1,2,3,4-tetrahydro-9H-carbazol-9-yl]-acetic acid] | 152 nM |
| COCCN(C(=O)CCc1ccccc1OC)[C@H]1CCc2c(c3cc(F)ccc3n2CC(=O)O)C1 [(3S)-(6-Fluoro-3-{(2-methoxy-ethyl)-[3-(2-methoxy-phenyl)-propionyl]-amino}-1,2,3,4-tetrahydro-9H-carbazol-9-yl)-acetic acid] | 6 nM |

Continued, values first:

| IC50 | Compound |
| --- | --- |
| 60 nM | CN(C(=O)COCc1ccccc1)[C@H]1CCc2c(c3cc(F)ccc3n2CC(=O)O)C1 [(3S)-{3-[(2-Benzyloxy-acetyl)-methyl-amino]-6-fluoro-1,2,3,4-tetrahydro-9H-carbazol-9-yl}-acetic acid] |
| 16 nM | O=C(O)Cn1c2c(c3cc(F)ccc31)C[C@@H](NC(=O)CCc1ccc(Cl)cc1Cl)CC2 [(3S)-{3-[3-(2,4-Dichloro-phenyl)-propionylamino]-6-fluoro-1,2,3,4-tetrahydro-9H-carbazol-9-yl}-acetic acid] |
| 824 nM | O=C(O)Cn1c2c(c3cc(F)ccc31)C[C@@H](NC(=O)c1cc3ccccc3[nH]1)CC2 [(3S)-{6-Fluoro-3-[(1H-indole-2-carbonyl)-amino]-1,2,3,4-tetrahydro-9H-carbazol-9-yl}-acetic acid] |
| 47 nM | O=C(O)Cn1c2c(c3cc(F)ccc31)C[C@@H](NC(=O)CCc1cccc(OC(F)(F)F)c1)CC2 [(3S)-{6-Fluoro-3-[3-(3-trifluoromethoxy-phenyl)-propionylamino]-1,2,3,4-tetrahydro-9H-carbazol-9-yl}-acetic acid] |
| 4 nM | CC(=O)N(CCc1ccccc1F)[C@H]1CCc2c(c3cc(F)ccc3n2CC(=O)O)C1 [(3S)-(3-{Acetyl-[2-(2-fluoro-phenyl)-ethyl]-amino}-6-fluoro-1,2,3,4-tetrahydro-9H-carbazol-9-yl)-acetic acid] |
| 147 nM | O=C(O)Cn1c2c(c3ccccc31)C[C@H](NC(=O)NS(=O)(=O)c1ccccc1)CC2 [(3R)-[3-(3-Phenylsulfonyl-ureido)-1,2,3,4-tetrahydro-9H-carbazol-9-yl]-acetic acid] |
| 11 nM | O=C(O)Cn1c2c(c3cc(F)ccc31)C[C@@H](NC(=O)C1Cc3ccccc3N1)CC2 (stereo partly drawn) [(3S)-{3-[(2,3-Dihydro-1H-indole-2-carbonyl)-amino]-6-fluoro-1,2,3,4-tetrahydro-9H-carbazol-9-yl}-acetic acid] |
| 33 nM | O=C(O)Cn1c2c(c3cc(F)ccc31)C[C@@H](NC(=O)CCc1ccccc1O)CC2 [(3S)-{6-Fluoro-3-[3-(2-hydroxy-phenyl)-propionylamino]-1,2,3,4-tetrahydro-9H-carbazol-9-yl}-acetic acid] |
| 15 nM | O=C(O)Cn1c2c(c3cc(F)ccc31)C[C@@H](NC(=O)CCc1cc(C(F)(F)F)ccc1C(F)(F)F)CC2 [(3S)-{3-[3-(2,5-Bis-trifluoromethyl-phenyl)-propionylamino]-6-fluoro-1,2,3,4-tetrahydro-9H-carbazol-9-yl}-acetic acid] |
| 18 nM | COc1cccc2c1CC(C(=O)N[C@H]1CCc3c(c4cc(F)ccc4n3CC(=O)O)C1)CC2 (mixture of isomers) [(3S)-(6-Fluoro-3-{[(2RS)-8-methoxy-1,2,3,4-tetrahydro-naphthalene-2-carbonyl]-amino}-1,2,3,4-tetrahydro-9H-carbazol-9-yl)-acetic acid] |
| 9 nM | O=C(O)Cn1c2c(c3cc(F)ccc31)C[C@@H](NC(=O)COc1ccc(Cl)cc1)CC2 [(3S)-{3-[2-(4-Chloro-phenoxy)-acetylamino]-6-fluoro-1,2,3,4-tetrahydro-9H-carbazol-9-yl}-acetic acid] |
| 14 nM | CSc1ccc(CCC(=O)N[C@H]2CCc3c(c4cc(F)ccc4n3CC(=O)O)C2)cc1 [(3S)-{6-Fluoro-3-[3-(4-methylsulfanyl-phenyl)-propionylamino]-1,2,3,4-tetrahydro-9H-carbazol-9-yl}-acetic acid] |
| 61 nM | Cc1ccc(CCC(=O)N[C@@H]2CCc3c(c4cc(F)ccc4n3CC(=O)O)C2)cc1 [(3R)-[6-Fluoro-3-(3-p-tolyl-propionylamino)-1,2,3,4-tetrahydro-9H-carbazol-9-yl]-acetic acid] |
| 6 nM | COc1cccc(NC(=O)CC(Cc2ccccc2)C(=O)N[C@H]2CCc3c(c4cc(F)ccc4n3CC(=O)O)C2)c1 (mixture of isomers) [(3S)-{3-[(RS)-2-Benzyl-3-(3-methoxy-phenylcarbamoyl)-propionylamino]-6-fluoro-1,2,3,4-tetrahydro-9H-carbazol-9-yl}-acetic acid] |
| 16 nM | CCN(C(=O)CCc1ccccc1)[C@H]1CCc2c(c3cc(F)ccc3n2CC(=O)O)C1 [(3S)-{6-Fluoro-3-[ethyl-(3-phenyl-propionyl)-amino]-1,2,3,4-tetrahydro-9H-carbazol-9-yl}-acetic acid] |
| 72 nM | CS(=O)(=O)c1ccc(CCC(=O)N[C@H]2CCc3c(c4cc(F)ccc4n3CC(=O)O)C2)cc1 [(3S)-{6-Fluoro-3-[3-(4-methanesulfonyl-phenyl)-propionylamino]-1,2,3,4-tetrahydro-9H-carbazol-9-yl}-acetic acid] |
| 39 nM | O=C(O)Cn1c2c(c3cc(F)ccc31)C[C@H](NC(=O)CCc1cccc(Cl)c1)CC2 [(3R)-{3-[3-(3-Chloro-phenyl)-propionylamino]-6-fluoro-1,2,3,4-tetrahydro-9H-carbazol-9-yl}-acetic acid] |
| 15 nM | O=C(O)Cn1c2c(c3cc(F)ccc31)C[C@@H](NC(=O)CCc1ccc3c(c1)OCO3)CC2 [(3S)-[3-(3-Benzo[1,3]dioxol-5-yl-propionylamino)-6-fluoro-1,2,3,4-tetrahydro-9H-carbazol-9-yl]-acetic acid] |
| 57 nM | O=C(O)Cn1c2c(c3cc(F)cc(Cl)c31)CC(NC(=O)CCc1ccccc1)CC2 (racemic) |
